According to patent US11667946B2, “Detection of beta-hemolytic pathogens” (TEMASEK LIFE SCIENCES LABORATORY LIMITED, priority 2016, dated 2023):

Key:
gram-negative bacteria = test: Uptake of free H33342 by bacteria on BHI agar; assay type: cell-based
Description: (§1) Uptake of free H33342 by bacteria: The uptake of free H33342 was investigated by repeating the experiment as above but replacing liposomal H33342 with free H33342 dye (final concentration, 160 nM). Sodium hexametaphosphate (305553, Sigma-Aldrich) was added to a concentration of up to 0.3% for membrane permeabilization experiments.

gram-positive bacteria = test: Uptake of free H33342 by bacteria on BHI agar; assay type: cell-based; conditions: 160 nM, overnight
Description: as §1

a variety of bacteria = test: Culturing bacteria on BHI agar with free H33342; assay type: cell-based; conditions: 160 nM
Description: as §1

S. pyogenes = test: Membrane permeabilization with sodium hexametaphosphate (H33342 uptake); assay type: cell-based, Streptococcus pyogenes; conditions: at 0.3%
Description: as §1

E. coli = test: as above; assay type: cell-based, Escherichia coli; conditions: H33342 agar with sodium hexametaphosphate
Description: as §1

Row | Structure (SMILES) | uptake of dye (gram-negative bacteria) | colony association with / uptake of free dye (gram-positive bacteria) | lethality to bacteria (a variety of bacteria) | lethality to bacterium (S. pyogenes) | increase of colony fluorescence (E. coli) [%]
1 | CCOc1ccc(-c2nc3ccc(-c4nc5ccc(N6CCN(C)CC6)cc5[nH]4)cc3[nH]2)cc1 [H33342, Hoechst 33342] | not taken up | fluoresce blue | non-lethal | – | –
2 | O=P1([O-])OP(=O)([O-])OP(=O)([O-])OP(=O)([O-])OP(=O)([O-])OP(=O)([O-])O1.[Na+].[Na+].[Na+].[Na+].[Na+].[Na+] [sodium hexametaphosphate] | – | – | – | lethal | 80
